Data: paper PMC6256112, “Cannabinoid Receptor 2 Signalling Bias Elicited by 2,4,6-Trisubstituted 1,3,5-Triazines” (Frontiers in Pharmacology, 2018)
≈ marks a conversion by molar mass, not a printed value. Marks after values point to notes of the source that are not given here.

Legend:
HEK Flp-in wt cells = assay: CAMYEL cAMP assay in HEK Flp-in wt cells (non-hCB2-mediated effects); format: cell-based, human; conditions: HEK Flp-in wt
hCB2 [1] = target: T1, hCB2 (Homo sapiens, UniProt P34972); assay: hCB2 internalisation assay (immunocytochemistry of surface receptor), HEK Flp-in hCB2 cells; format: cell-based
T1 construct: expressed in transfected cells; host or cells: HEK Flp-in

CB2 = system: CB2; parameters: method as in Yrjölä et al., 2015; conditions: ref Yrjölä et al., 2015; cited from earlier work
hCB2 [2] = target: T1, hCB2; assay: Comparison of efficacy/potency and operational-model bias analysis between hCB2 pathways, reference CP 55,940; format: cell-based
hCB2 [3] = target: T1, hCB2; assay: Radioligand competition binding with [3H]-CP 55,940 on hCB2-expressing HEK membranes
hCB2 [4] = target: T1, hCB2; assay: pERK AlphaLISA assay, HEK Flp-in hCB2 cells; format: cell-based
physchem = format: physicochemical; conditions: organic solvent or mixture
Description: The piperazine-containing 1,3,5-triazines 1 and 7, assembled following literature protocols (compound “26a” in [Yrjölä et al., 2013]; compound “8” in [Yrjölä et al., 2015], respectively), were alkylated with various alkyl bromide linkers containing a Boc-protected amine at the terminus to give 3, 4, 8, 9 and 10 (Schemes 1, 2). These were then Boc-deprotected using acidic conditions to give primary amines 5, 6, 11, 12, and 13. One example of an acetylated linker (14) was also synthesised. Thirteen compounds were biologically tested (Table 1); five compounds had been reported previously (1, 2, 7, 15, 16) ([Yrjölä et al., 2013], [2015]), and the remainder were novel (5, 6, 9–14). […] 7 was therefore assayed in a higher final DMSO content (1%) than the other compounds (0.1%). Both vehicle concentrations were controlled for in all assays (negative/vehicle and positive controls).

hCB1 = target: T2, hCB1 (Homo sapiens, UniProt P21554); assay: Radioligand competition binding screen with [3H]-CP 55,940 on hCB1-expressing HEK membranes
T2 construct: expressed in transfected cells; host or cells: HEK (membranes)

hCB2 [5] = target: T1, hCB2; assay: Real-time CAMYEL BRET cAMP assay, forskolin-stimulated HEK Flp-in hCB2 cells; format: cell-based
Method: Cellular cAMP levels were measured using a real-time BRET biosensor (CAMYEL) as previously described ([Cawston et al., 2013]). In brief, cells were seeded in 10 cm dishes one day prior to transfection. The medium was then replaced and cells transfected with 5 μg of pcDNA3L-His-CAMYEL (ATCC, Manassas, VA, United States) using linear PEI (MW 25 kDa; Polysciences, Warrington, PA, United States) with a DNA:PEI ratio of 1:6. Approximately 24 h after transfection, cells were trypsinised and re-plated in poly-D-lysine treated white 96-well plates (Corning), at a density of 5–6 × 10^4 cells per well. For experiments involving pertussis toxin (PTX; Sigma-Aldrich) pre-treatment, cells were seeded in half the usual volume of medium, and then ∼5 h later, 2× concentrated PTX or vehicle (50% glycerol, […] Tris–HCl pH 7.5, 10 mM glycine, 500 mM NaCl) were prepared in medium and added to the existing plating medium (giving rise to a final PTX concentration of 100 ng mL^-1). Approximately 24 h after plating (or 16–20 h after applying PTX/vehicle in experiments involving PTX treatment), cells were washed once with Hank’s Balanced Salt Solution (HBSS, Thermo Fisher Scientific, catalogue #14025-134), and then equilibrated for 30 min in HBSS supplemented with 1 mg mL^-1 BSA. Coelenterazine h (final concentration 5 μM; NanoLight Technologies, Pinetop, AZ, United States) was added to each well and incubated for 5 min. Forskolin was added (final concentration 5 μM) and incubated for 6 min (allowing enough time for the induced cAMP increase to plateau), prior to vehicle/drug addition. All drugs and reagents were prepared in HBSS supplemented with 1 mg mL^-1 BSA. SR 144528 was a generous gift from Roche (Basel, Switzerland).
Assays were carried out in technical duplicate. Emissions were detected at 460 nm (Rluc) and 535 nm (YFP) with either a LUMIstar® Omega luminometer (BMG Labtech, Ortenberg, Germany) or CLARIOstar® (BMG Labtech). BRET ratios (535 nm emissions/460 nm emissions, where an increase in ratio corresponds to a decrease in cAMP) were normalised to pre-forskolin reads (i.e., with coelenterazine h present) to remove any variability present prior to addition of forskolin and drug/vehicle. A Lowess curve (GraphPad Prism) was fitted to individual technical replicates within an assay so that cAMP signalling data could be extrapolated from any time point as opposed to only those that were empirically measured (typically every 30–60 s). Data were normalised to matched vehicle (0%) and forskolin (100%) treatments, allowing compilation of data from independent experiments.

[6] = operational model transduction ratio
[7] = 10^ΔΔlogR, relative to CP 55,940
[8] = relative to reference ligand CP 55,940

T1 sequence (P34972 whole entry): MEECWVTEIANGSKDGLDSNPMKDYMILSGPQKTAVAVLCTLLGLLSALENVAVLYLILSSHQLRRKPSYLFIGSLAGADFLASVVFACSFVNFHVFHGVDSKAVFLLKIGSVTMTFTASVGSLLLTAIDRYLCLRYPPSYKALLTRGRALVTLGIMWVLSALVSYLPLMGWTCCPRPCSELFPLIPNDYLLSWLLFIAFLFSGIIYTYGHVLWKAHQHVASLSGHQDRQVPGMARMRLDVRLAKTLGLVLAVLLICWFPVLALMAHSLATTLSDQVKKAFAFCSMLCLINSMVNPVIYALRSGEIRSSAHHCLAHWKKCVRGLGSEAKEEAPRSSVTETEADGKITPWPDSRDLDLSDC
T2 sequence (P21554 whole entry): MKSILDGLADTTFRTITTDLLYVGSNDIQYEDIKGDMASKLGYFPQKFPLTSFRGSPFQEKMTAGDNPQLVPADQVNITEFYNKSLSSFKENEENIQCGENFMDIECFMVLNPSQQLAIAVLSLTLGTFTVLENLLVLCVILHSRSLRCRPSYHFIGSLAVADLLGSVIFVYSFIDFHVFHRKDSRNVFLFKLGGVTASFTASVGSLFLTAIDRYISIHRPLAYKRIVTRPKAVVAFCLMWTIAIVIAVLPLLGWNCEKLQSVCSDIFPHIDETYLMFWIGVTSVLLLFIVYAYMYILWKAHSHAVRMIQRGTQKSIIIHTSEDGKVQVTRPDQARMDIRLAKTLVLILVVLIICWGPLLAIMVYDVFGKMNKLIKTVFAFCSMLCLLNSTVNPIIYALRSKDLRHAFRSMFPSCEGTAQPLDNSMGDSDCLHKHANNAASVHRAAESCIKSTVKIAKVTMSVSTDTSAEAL

## CCOc1nc(NC23CC4CC(CC(C4)C2)C3)nc(N2CCNCC2)n1 [Compound 7, N-(ad-amantan-1-yl)-4-ethoxy-6-(piperazin-1-yl)-1,3,5-triazi n-2-amine]
HEK Flp-in wt cells
  Non-hCB2-mediated effects on cAMP (in words): most pronounced effects
hCB2 [1]; 1 h stimulation
  EC50: 0.0457 µM
hCB2 [1]; [6]
  logR [log(τ/KA)] (±SEM) Internalisation: 7.42 (0.26)
hCB2 [1]; read-out: Internalisation (1 h) Emax (±SEM), 1 h stimulation, change in surface hCB2 relative to vehicle-treated (100%), for 13 efficacy at 10 μM
  Emax at 10 µM: -61.4%
CB2
  GTPγS activity, % of maximum measured activity: ~60%
hCB2 [2]; [7]
  Internalisation – pERK Bias factor: 15.4
  cAMP – internalisation Bias factor: 1.3
  cAMP – pERK Bias factor: 20.3
hCB2 [2]; relative to CP 55,940
  Between-pathway signalling bias (in words): away from activation of pERK
hCB2 [2]; [8]
  Internalisation – pERK ΔΔlogR (±SEM): 1.19 (0.16)***
  cAMP – internalisation ΔΔlogR (±SEM): 0.12 (0.31)
  cAMP – pERK ΔΔlogR (±SEM): 1.31 (0.27)***
hCB2 [3]; 1 h, 10 μM compound, displacement of 0.5 nM [3H]-CP 55,940, read-out: CB2 binding extent at 10 μM (%) (±SEM)
  inhibition at 10 µM: 85.6%
hCB2 [3]; compared to methylpiperazinyl-15
  Reduction in hCB2 affinity compared to 15: ~100 fold
hCB2 [3]; heterologous competition vs [3H]-CP 55,940, read-out: CB2 pKi (±SEM) (converted)
  Ki: 0.417 µM
hCB2 [4]; 4 min
  Behaviour in pERK pathway (in words): weak partial agonists
hCB2 [4]; 4 min stimulation, 14 approximate (low potency), read-out: pERK (4 min) pEC50 (±SEM) (converted)
  EC50: 1.82 µM
hCB2 [4]; [6]
  logR [log(τ/KA)] (±SEM) pERK: 5.51 (0.05)
hCB2 [4]; time course experiment
  Time of maximal pERK response: 4 min
physchem
  solubility: 1000 µM (≈ 358 µg/mL)
hCB1; 10 μM compound, displacement of 0.75 nM [3H]-CP 55,940
  CB1 binding extent at 10 μM (%) (±SEM): 13.7 (4.1) %
hCB1; from CB1 binding at 10 μM versus CB2 affinity
  CB2 selectivity over CB1 (in words): likely also CB2-selective
hCB2 [5]; 5 min post-drug, 5 μM forskolin, 10 and 14 approximate (non-hCB2-mediated effects), read-out: cAMP (5 min) pEC50 (±SEM) (converted)
  EC50: 0.0851 µM
hCB2 [5]; 5 min post-drug, 5 μM forskolin, change relative to forskolin alone (100%), vehicle 0%, 10 and 14 approximate
  cAMP (5 min) Emax (±SEM): –43.0 (3.0) %
hCB2 [5]; [6]
  logR [log(τ/KA)] (±SEM) cAMP: 7.29 (0.26)
